Results on ten compounds are retold here after publication PMC11992225, “Antibacterial compounds against non-growing and intracellular bacteria” (npj Antimicrobials and Resistance, 2025).

Each structure is given as a SMILES string. pEC50: −log10 of the molar value. Values after ≈ are worked out from the molar mass of the structure shown. Like-named read-outs stand apart in the source and are kept apart here. A value given as a limit tells only on which side of the number the result lay.

Test [1] has as its system non-growing UPEC CFT073. Put plainly: Dilution-regrowth assay (screen, hit validation, dose-response) on stationary-phase UPEC. The note with it: for Regrowth: OD600 after dilution into drug-free medium (mean): OD600 at 6h or 8h; for pEC50: E. coli, regrowth delay of non-growing bacteria, 24 h treatment, OD600 6 h after 2500-fold dilution, read-out: EC50. It is filed as cell-based, Escherichia coli. The gist of the method: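 Regrowth (OD600 after 6 h, 37 °C) of diluted non-growing CFT073, following 24 h compound treatment of 24 h stationary cultures, defines activity relative to untreated control. Screen at 20 µM, validation at 20, 10, 5 µM (duplicates), dose–response in three biological replicates fitted by five-parameter logistic.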

Test [2] deals with S. flexneri 5a M90T. Put plainly: MIC in tryptic soy broth, S. flexneri. The note with it: for MIC: Shigella flexneri, 5AM90T, read-out: MIC (μM) TSB; for MIC (μM) TSB: S. flexneri, extracellular bacteria in TSB. It is filed as cell-based, Shigella flexneri. An outline of the steps:
(§1)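 Medium: CA-MHB + 40 mM HEPES, pH 7.4 (UPEC, P. aeruginosa, S. aureus); LPM + 30 mM MES, pH 5.5 (UPEC, extra condition); TSB (S. flexneri). Microdilution format, n = 3.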

In test [3] the test system is P. aeruginosa DSM1117. Briefly: MIC, standard microdilution assay, growing P. aeruginosa. Type of test: cell-based, Pseudomonas aeruginosa. The note with it: P. aeruginosa. An outline of the steps:
as §1

Test [4] concerns non-growing P. aeruginosa DSM1117. Put plainly: Dilution-regrowth assay (OD600, start-growth-time) on stationary-phase P. aeruginosa. The note with it: P. aeruginosa; for Regrowth: OD600 after dilution into drug-free medium (mean): OD600 at 6h or 8h; for pEC50: regrowth delay of non-growing bacteria, 1:4 CA-MHB pH 7.4, 24 h treatment, OD600 8 h after dilution, read-out: EC50. Type of test: cell-based, Pseudomonas aeruginosa. An outline of the steps:
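Stationary-phase cultures grown 24 h at 37 °C, 200 rpm, in 1:4 CA-MHB with 40 mM HEPES (pH 7.4), treated 24 h; preliminary compounds at 20 μM, 4 replicates. Regrowth OD600 read every 20 min at 37 °C; start-growth-time is when OD600 exceeds 0.12.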

The mark [5] stands for this setting: Pseudomonas aeruginosa, DSM1117, 1:4 diluted CA-MHB pH 7.4, read-out: MIC (μM) 1:4 CA-MHB.
The mark [6] stands for this setting: Pseudomonas aeruginosa, DSM1117, CA-MHB pH 7.4, read-out: MIC (μM) CA-MHB.
[7] abbreviates: Pseudomonas aeruginosa, DSM1117.
Setting [8] is: Escherichia coli, pH 7.4, 1:4 CA-MHB.
Setting [9] is: CA-MHB pH 7.4, read-out: MIC (μM) CA-MHB.

For `CO[C@H]1/C=C/O[C@@]2(C)Oc3c(C)c(O)c4c(c3C2=O)C2=NC3(CCN(CC(C)C)CC3)NC2=C(NC(=O)/C(C)=C\C=C\[C@H](C)[C@H](O)[C@@H](C)[C@@H](O)[C@@H](C)[C@H](OC(C)=O)[C@@H]1C)C4=O` [Rifabutin], the “Regrowth: OD600 after dilution into drug-free medium (mean)” value was found to be 0.656 in test [1] (E. coli in 1:4 CA-MHB (pH 7.4), concentration 0.25); 0.633 in test [1] (E. coli in 1:4 CA-MHB (pH 7.4), concentration 0.5); 0.623 in test [1] (E. coli in 1:4 CA-MHB (pH 7.4), concentration 1); 0.617 in test [1] (E. coli in 1:4 CA-MHB (pH 7.4), concentration 2.5); 0.605 in test [1] (E. coli in 1:4 CA-MHB (pH 7.4), concentration 5); 0.612 in test [1] (E. coli in 1:4 CA-MHB (pH 7.4), concentration 10). Moreover, the “Regrowth: OD600 after dilution into drug-free medium (mean)” value in test [1] (E. coli in LPM (pH 5.5), concentration 0.25) amounted to 0.569; in test [1] (E. coli in LPM (pH 5.5), concentration 0.5), 0.563; in test [1] (E. coli in LPM (pH 5.5), concentration 1), 0.555; in test [1] (E. coli in LPM (pH 5.5), concentration 2.5) it was 0.521; in test [1] (E. coli in LPM (pH 5.5), concentration 5), 0.497; in test [1] (E. coli in LPM (pH 5.5), concentration 10) it was 0.485. In addition, the “Regrowth: OD600 after dilution into drug-free medium (mean)” value is listed as 0.637 in test [4] (concentration 0.1), 0.579 in test [4] (concentration 0.5), 0.109 in test [4] (concentration 2.5) and 0.093 in test [4] (concentration 10). Further, the figures for the MIC in test [2], in test [3] (setting [5]) and in test [3] (setting [6]) were 32 µM (≈ 27.1 µg/mL), 10 µM (≈ 8.47 µg/mL) and 40 µM (≈ 33.9 µg/mL), respectively. Further, the pEC50 in test [4] (setting [7]) is 6.03.

Regarding `CC[C@H]1OC(=O)C[C@@H](O)[C@H](C)[C@@H](O[C@@H]2O[C@H](C)C[C@H](N(C)C)[C@H]2O)[C@@H](CC=O)C[C@@H](C)C(=O)/C=C/[C@]2(C)O[C@H]2[C@@H]1C` [Rosamicin], the figures for the pEC50 in test [1] (setting [8]) and in test [4] (setting [7]) were 6.07 and 5.64, respectively. Besides, the minimum inhibitory concentration (MIC) in test [2] was 16 µM (≈ 9.31 µg/mL); in test [3] (setting [5]), 100 µM (≈ 58.2 µg/mL); in test [3] (setting [6]), greater than 100 µM.

Regarding `O=C(O)c1cn(-c2ccc(F)cc2)c2cc(N3CCNCC3)c(F)cc2c1=O` [Sarafloxacin], the pEC50 in test [1] (setting [8]) was 5.76; in test [4] (setting [7]), 6.67. Moreover, the MIC in test [2] amounted to 0.0625 µM (≈ 0.0241 µg/mL); in test [3] (setting [5]) it was 2 µM (≈ 0.771 µg/mL); in test [3] (setting [6]), 2 µM (≈ 0.771 µg/mL).

`CC(=O)[O][Pt]([NH2])([Cl])([Cl])([NH]C1CCCCC1)[O]C(C)=O` [Satraplatin]: the “Regrowth, OD600 at 6h or 8h after dilution into drug-free medium (average)” value came to 0.615 in test [1] (E. coli in 1:4 CA-MHB (pH 7.4), drug concentration 0.25); 0.612 in test [1] (E. coli in 1:4 CA-MHB (pH 7.4), drug concentration 0.5); 0.620 in test [1] (E. coli in 1:4 CA-MHB (pH 7.4), drug concentration 1); 0.601 in test [1] (E. coli in 1:4 CA-MHB (pH 7.4), drug concentration 2.5); 0.592 in test [1] (E. coli in 1:4 CA-MHB (pH 7.4), drug concentration 5); 0.597 in test [1] (E. coli in 1:4 CA-MHB (pH 7.4), drug concentration 10). Also, the “Regrowth, OD600 at 6h or 8h after dilution into drug-free medium (average)” value is 0.570 in test [1] (E. coli in 1:4 CA-MHB (pH 7.4), drug concentration 30); 0.566 in test [1] (E. coli in LPM (pH 5.5), drug concentration 0.25); 0.557 in test [1] (E. coli in LPM (pH 5.5), drug concentration 0.5); 0.558 in test [1] (E. coli in LPM (pH 5.5), drug concentration 1); 0.474 in test [1] (E. coli in LPM (pH 5.5), drug concentration 2.5); 0.354 in test [1] (E. coli in LPM (pH 5.5), drug concentration 5). Also, the “Regrowth, OD600 at 6h or 8h after dilution into drug-free medium (average)” value in test [1] (E. coli in LPM (pH 5.5), drug concentration 10) is 0.251; in test [1] (E. coli in LPM (pH 5.5), drug concentration 30), 0.087; in test [4] (drug concentration 0.1), 0.622; in test [4] (drug concentration 0.5), 0.518; in test [4] (drug concentration 2.5), 0.207; in test [4] (drug concentration 10) it was 0.094. Moreover, the negative-log EC50 (pEC50) in test [1] (LPM pH 5.5) was 5.12; in test [4], 5.92. In test [1] (regrowth delay and killing, Figs. 2 and 3), the “activity against non-growing UPEC in LPM (pH 5.5) compared to 1:4 CA-MHB (pH 7.4)” value is reported as “potentiated by the low pH”. Further, the “MIC (μM) TSB” value in test [2] was 128 µM. Also, in test [3] (setting [9]), the MIC is 160 µM.

On to `N[C@@H]1CN(c2c(F)cc3c(=O)c(C(=O)O)cn([C@@H]4C[C@@H]4F)c3c2Cl)CC12CC2` [Sitafloxacin], for which the negative-log EC50 (pEC50) in test [1] (LPM pH 5.5) was 4.97; in test [1] (pH 7.4, 1:4 CA-MHB) it was 6.73; in test [4], 7.27. The “MIC (μM) TSB” value in test [2] worked out at 0.01562 µM (≈ 0.0064 µg/mL). The MIC in test [3] (1:4 diluted CA-MHB pH 7.4, read-out: MIC (μM) 1:4 CA-MHB) is reported as 0.5 µM (≈ 0.205 µg/mL); in test [3] (setting [9]) it was 0.5 µM (≈ 0.205 µg/mL).

As for `CC[C@H]1OC(=O)[C@@](C)(F)C(=O)[C@H](C)[C@@H](O[C@@H]2O[C@H](C)C[C@H](N(C)C)[C@H]2O)[C@](C)(OC)C[C@@H](C)C(=O)[C@H](C)[C@H]2N(CCCCn3cc(-c4cccc(N)c4)nn3)C(=O)O[C@]12C` [Solithromycin], the pEC50 was 6.54 in test [1] (setting [8]) and 6.80 in test [4] (setting [7]). In addition, the MIC was 8 µM (≈ 6.76 µg/mL) in test [2], 80 µM (≈ 67.6 µg/mL) in test [3] (setting [5]) and 80 µM (≈ 67.6 µg/mL) in test [3] (setting [6]). Also, the “MIC (μM) CA-MHB +PAβN” value in test [3] (CA-MHB with 10 μg/ml PaβN) is greater than 80 µM.

`C[C@@H]1CN(c2c(F)c(N)c3c(=O)c(C(=O)O)cn(C4CC4)c3c2F)C[C@H](C)N1` [Sparfloxacin]: the pEC50 was 5.20 in test [1] (setting [8]) and 6.42 in test [4] (setting [7]). Further, the MIC in test [2] is 0.0312 µM (≈ 0.0123 µg/mL); in test [3] (setting [5]) it was 2 µM (≈ 0.785 µg/mL); in test [3] (setting [6]), 2 µM (≈ 0.785 µg/mL).

In the case of `NC1CCN(c2nc3c(cc2F)c(=O)c(C(=O)O)cn3-c2ccc(F)cc2F)C1` (stereo not shown) [Tosufloxacin], the pEC50 in test [1] (Escherichia coli, LPM pH 5.5) was 4.99; in test [1] (setting [8]) it was 6.12; in test [4] (setting [7]) it was 6.63. The MIC was determined as 0.0156 µM (≈ 0.00632 µg/mL) in test [2] and 1 µM (≈ 0.404 µg/mL) in test [3] (setting [6]).

For `N[C@@H]1[C@H]2CN(c3nc4c(cc3F)c(=O)c(C(=O)O)cn4-c3ccc(F)cc3F)C[C@@H]12` [Trovafloxacin], the pEC50 in test [1] (Escherichia coli, LPM pH 5.5) was 5.29; in test [1] (setting [8]), 5.90; in test [4] (setting [7]), 5.99. The MIC in test [2] turned out to be 0.0625 µM (≈ 0.026 µg/mL); in test [3] (setting [5]) it was 8 µM (≈ 3.33 µg/mL); in test [3] (setting [6]), 2 µM (≈ 0.833 µg/mL). Also, the “increase of MIC in diluted CA-MHB versus CA-MHB” value in test [3] was “four”.

In the case of `CC1Sc2c(C(=O)O)c(=O)c3cc(F)c(N4CCNCC4)cc3n21` (stereo not shown) [Ulifloxacin], the pEC50 in test [1] (Escherichia coli, LPM pH 5.5) was 5.06; in test [1] (setting [8]), 6.34; in test [4] (setting [7]), 7.09. Further, the MIC in test [2] was 0.0312 µM (≈ 0.0109 µg/mL); in test [3] (setting [5]) it was 0.5 µM (≈ 0.175 µg/mL); in test [3] (setting [6]), 0.5 µM (≈ 0.175 µg/mL).

For orientation: MIC means the lowest concentration found to suppress growth. For orientation: pEC50 means −log10 of the EC50, conventionally taken in molar units.
